Data from patent US20220016080A1, “COMPOUNDS THAT SELECTIVELY AND EFFECTIVELY INHIBIT HAKAI-MEDIATED UBIQUITINATION, AS ANTI-CANCER DRUGS” (FUNDACIÓN PROFESOR NOVOA SANTOS, priority 2018, published 2022).

Assays:
HT-29 cells [1] = assay: Soft agar-colony formation assay, HT29; format: cell-based; settings: 28 days
Method: (§1) Soft agar-colony formation assay was performed on 12-well plates in triplicates at a density of 5×10^3 MDCK and MDCK-Hakai cells/well, or 12×10^3 HT29 cells/well. Cells were seeded in medium with 0.5% low-melting agarose over a layer with 0.75% low-melting agarose (Lonza Rockland, Me., USA). Cells were treated with the indicated inhibitors and DMSO was used as vehicle. Treatment was refreshed every 3 days and, after 21 days for MDCK and MDCK-Hakai cells or 28 days for HT29 cells, number of colonies were quantified. Quantification of five randomly-selected fields of each condition was photographed with a Nikon Eclipse-TI microscope (objective 4×). Experiments were conducted with three triplicates and were repeated three times. Data are represented as mean±SD.

[2] = tested on: Hakai-MDCK xenograft tumours; assay: Tumour xenograft model (Hakai-MDCK cells in nude mice); format: in vivo, athymic nu/nu mice
Method: Xenografts experiments were performed in Experimental Surgery Unit—Technological Training Center from INIBIC in compliance with the European Community Law (86/609/EEC) and the Spanish law (R.D. 53/2013). The experiment was approved by the Ethics Committee for Animal Experimentation of Xerencia de Xestion Integrada da Coruna (XXIAC). Mice were in a 12/12 hours light/dark cycle with water and food available ad libitum. Six weeks old athymic nu/nu mice were randomly distributed in groups. One million of MDCK cells, resuspended in DMEM without serum and antibiotic, were subcutaneously inoculated in both flanks in two groups of 3 animals. The same number of Hakai-MDCK cells were injected in two groups of 4 animals. Twenty days after inoculation tumours in Hakai-MDCK were palpable. Then, half of the animals were treated with Hakin-1 (5 mg/kg) and the other half with the same concentration of DMSO every 3 days. Tumour outgrowth was monitored twice a week taking measurements of tumour length (L) and width (W) with an electronic calipter. Tumour volume was calculated as pLW2/6. Forty days after inoculation, animals were sacrificed. Tumours, lungs, kidneys and livers were collected and fixed in 4% PFA and embedded in paraffin blocks for histology and/or immunohistochemistry (IHC) analyses.
Tumours and tissues were deparaffinised, rehydrated and stained with haematoxylin and eosin (H&E) as previously described. Tumour sections (4 μm) were also deparaffinised and hydrated for immunohistochemistry. Antigen retrieval was carried by heating the samples (2100 Retriever; PickCell Laboratories) in citrate buffer (Dako REAL, Denmark) or in EDTA buffer. Then, endogenous peroxidase activity was blocked with peroxidase blocking (DakoCytomation, Denmark). Samples were blocked and permeabilized with 0.2% BSA and 0.1% Tx-100 for 1 hour and incubated with the indicated primary antibodies overnight at 4° C. in a wet chamber. Slides were incubated for 1 hour at room temperature with the secondary antibody and detection was carried our using DAB (DakoReal Envision kit) according to manufacturer instructions. Finally, nuclei were counterstained with Gill's Hematoxylin and mounted with DePeX. Pictures were taken with an Olympus microscope. Quantification of images was performed taken 5 photographs of each animal with Image J programme and the represented results are shown as mean±SEM. The number of mitosis was counted in sections stained with H&E. In this case, ten pictures of each tumour were taken with an Olympus BX50 microscope (objective 40×) and the number of mitosis was counted manually. Results are represented as mean±SEM and a representative photograph is shown for each condition. […]
Tissue sections from tumours were deparaffinised and rehydrated using standard protocols. The slides were rinsed twice with PBS and treated with citrate buffer buffer (Dako REAL, Denmark) in microwave at 350 W for 5 min. The tissue sections were then analysed with an in situ Cell Death Detection Kit, Fluorescein (Roche) following the manufacturer's instructions. Then, slides were incubated with Hoechst for 5 min in darkness. The reaction was visualized under an epifluorescence Olympus microscope using 20× objective. Five representative pictures of each section were taken. The percentage of positive cells was calculated and results are represented as mean±SEM.

[3] = tested on: non-transformed epithelial MDCK cells; assay: BrdU proliferation assay, MDCK; format: cell-based; settings: 48 h
Method: (§2) For BrdU assays, 1×10^4 of indicated cells were plated per well into a 96-well plate. After 24 h, cells were treated with the indicated inhibitors for 48 h. Three independent experiments were plated with six replicates per each condition. Cells were treated with […] BrdU for 2 h. BrdU incorporation into newly synthesized DNA was measured using a cell proliferation colorimetric immunoassay kit according to the manufacturer's instructions (Roche, Switzerland). Results are expressed as mean±S.D. Results are represented as percentage of positive cells (mean±S.D) of three independent experiments.

[4] = tested on: ubiquitination in 293T cells; assay: Ubiquitination assay in 293T cells transfected with v-Src and HA-ubiquitin (Hakai not overexpressed); format: cell-based
Method: Six hours after transfection cells were treated with indicated concentrations of Hakin-1, Hakin-5 or the rest of the analogues tested for 36 h. Whole cell extracts were obtained in lysis buffer (20 mM Tris-HCl pH 7.5, 150 mM NaCl and 1% Triton X-100) containing 10 μg/ml leupeptin, 10 μg/ml aprotinin and 1 mM phenylmethanesulphonyl fluoride (PMSF), supplemented with 10 mM N-ethylmaleimide. Cells were harvested and subjected to western blotting using anti-HA antibody to detect ubiquitination.

LoVo cells = assay: Immunofluorescence of E-cadherin, LoVo; format: cell-based; settings: 48 h
Method: (§3) For western blot analysis, cells were treated with the indicated inhibitors for 48 h and the whole cell extracts were obtained as described previously. Twenty micrograms of lysates were resolved on a 10% polyacrilamide SDS-PAGE followed by western blot analysis performed as previously described. For immunofluorescence assays cells were grown for 24 h on glass coverslips and treated with the indicated inhibitors for 48 h. Cells were fixed with 4% PFA for 15 min, permeabilized with 0.5% […] and incubated with E-cadherin antibody for 2 h. Coverslips were incubated with fluorescein-tagged secondary antibody (Dakopatts, Sweden) for […]. Finally coverslips were mounted with ProLong Gold antifade reagent (LifeTech, UK) and images were taken in epifluorescence microscope (Olympus) using 40× objective.

renal cancer ACHN cells = assay: BrdU proliferation assay, ACHN; format: cell-based, human; settings: 48 h
Method: as §2

HT-29 cells [5] = assay: Western blotting of EMT markers, HT-29; format: cell-based; settings: 48 h
Method: as §3

Hakai-MDCK cells [6] = assay: Soft agar-colony formation assay, Hakai-MDCK; format: cell-based; settings: 21 days
Method: as §1

Hakai-MDCK cells [7] = assay: E-cadherin protein levels, Hakai-MDCK; format: cell-based; settings: mesenchymal Hakai-MDCK cells, no basal E-cadherin
Method: as §3

[8] = Hakai-MDCK xenograft tumours, 5 mg/kg every 3 days
[9] = Hakai-MDCK xenograft, 5 mg/kg every 3 days

O=C(O)c1ccc(-n2nnnc2SCC(=O)c2ccc([N+](=O)[O-])cc2)cc1 [Hakin-1, 4-(5-{[2-(4-nitrophenyl)-2-oxoethyl]thiol}-1H-tetrazol-1-yl)benzoic acid]
colony formation (soft agar) (HT-29 cells [1]): robust inhibition of colony formation | micrometastasis detected in lung (quantitative PCR of HA-tagged Hakai DNA) ([2]; Hakai-MDCK xenograft mice, compared to DMSO treated mice): significant reduction of micrometastasis | Cortactin expression (immunohistochemistry) ([2]; Hakai-MDCK xenograft tumours): recovered | E-cadherin (immunohistochemistry) ([2]; Hakai-MDCK xenograft tumours, in presence or absence of treatment): not detected | apoptosis (TUNEL assay) [2, 8]: no effect on apoptosis was detected | mitotic-index (H&E) [2, 8]: markedly reduce | number of Ki67-positive cells (immunohistochemistry) [2, 8]: markedly reduce | number of blood vessels (CD31 angiogenic marker) ([2]; Hakai-MDCK xenograft tumours, vs non-treated tumours): strong reduction on the number of blood vessels | xenograft tumour growth ([2]; Hakai-MDCK xenograft, nude mice, 5 mg/kg every 3 days, vs DMSO): potent effect on inhibiting xenograft tumour growth | tumour-cell infiltration in blood vessels (H&E) [2, 9]: no infiltration was detected | xenograft tumour cell morphology (H&E) [2, 9]: induction of tumour differentiation and an increase in cytoplasm size | tissue damage (H&E, morphological structure) ([2]; lung and kidney tissues of treated nude mice, 5 mg/kg): no damage was observed | N-cadherin expression (immunohistochemistry) ([2]; tumour xenografts, compared to DMSO treated mice): strongly reduced | cell proliferation (BrdU) [3]: no effect was detected | ubiquitination when Hakai was not overexpressed [4]: did not affect ubiquitination | E-cadherin levels at cell-cell contacts (immunofluorescence) (LoVo cells): significant increase E-cadherin levels at cell-cell contacts | cell proliferation (BrdU) (renal cancer ACHN cells): inhibits cell proliferation | Cortactin expression levels (western blotting) (HT-29 cells [5]): increase expression levels | E-cadherin levels (western blotting) (HT-29 cells [5]): increase E-cadherin levels | mesenchymal Vimentin marker (western blotting) (HT-29 cells [5]): reduced | colony formation (soft agar) (Hakai-MDCK cells [6]): robust inhibition of colony formation | E-cadherin protein levels (Hakai-MDCK cells [7]): no recovery was detected
